Results from US20110213193A1, “Magnetic Nanodelivery of Therapeutic Agents Across the Blood Brain Barrier” (THE FLORIDA INTERNATIONAL UNIVERSITY BOARD OF TRUSTEES, priority 2008, published 2011).

System: HIV-1 infected PBMCs
Assay: p24 antigen production by HIV-1 infected PBMCs
Type: cell-based
Details: identical culture conditions, various doses
Protocol: The efficacy of magnetic nanoparticle-AZTTP was evaluated in an in vitro model system using HIV infected peripheral blood mononuclear cells (PBMCs). […] Therefore, binding of AZTTP to magnetic nanoparticles have no effect on its biological activity.

**Q.** With Cc1cn([C@H]2C[C@H](N=[N+]=[N-])[C@@H](COP(=O)(O)OP(=O)(O)OP(=O)(O)O)O2)c(=O)[nH]c1=O [free AZTTP, 3′-Azido-3′-Deoxythymidine-5′-triphosphate] as the compound, how does the “anti-HIV activity of free AZTTP (positive control) and MP-AZTTP compared” value read?
**A.** similar
